Experimental data reported in patent US20250057770A1, “Monomethylfumarate Prodrug Compositions” (Alkermes Pharma Ireland Limited, priority 2015, published 2025).
Several values for one entry are separate records, joined by “and”; a condition that tells them apart may be missing. Equal entries are not always repeated. Structures can show the parent of a compound that is named as a salt.

Key:
Type in all cases: in vivo, human
[1] = Single ascending dose study (Part 1): plasma MMF pharmacokinetics; conditions: oral dosing, 49 to 980 mg
Protocol: (§1) A randomized, double-blind, placebo-controlled, sequential, single ascending dose study was conducted in healthy subjects to investigate the safety, tolerability and pharmacokinetics of capsules containing delayed release (DR) mini-tablets of Compound 1 from Example 2.1 (“Compound 1 DR capsules”). Up to 7 cohorts were included with 8 subjects in each cohort. In each cohort, 6 subjects received Compound 1 DR capsules and 2 subjects were treated with placebo in fasted condition. Compound 1 doses investigated were 49 mg (Cohort 1), 105 mg (Cohort 2), 210 mg (Cohort 3), 420 mg (Cohort 4), 630 mg (Cohort 5), 840 mg (Cohort 6), and 980 mg (Cohort 7) (all weights being mg of prodrug).
(§2) Blood samples were collected from all subjects prior to dosing and at 0.25, 0.50, 1, 1.50, 2, 2.50, 3, 4, 6, 8, 10, 12, and 24 hours after dosing. Plasma obtained from blood samples were analyzed for Compound 1, MMF and another metabolite using validated LC-MS/MS method. The plasma concentration-time profiles were analyzed via Non-Compartmental analysis (NCA) using Phoenix WinNonLin, version 6.3.

[2] = Single ascending dose study (Part 1): safety and tolerability, adverse events
Protocol: as §1

[3] = Phase I 2-period cross-over study (Part 2): plasma MMF pharmacokinetics; conditions: 420 mg Compound 1 DR versus 240 mg DMF
Protocol: (§3) (The DMF oral dosage form used in this study was […]®, (Biogen Idec, Inc Cambridge, MA, USA)). A total of 16 subjects were enrolled and randomized to a treatment sequence.
Each dosing period was separated by a wash-out period of 7 days.
as §2

[4] = Phase I 2-period cross-over study (Part 2): safety and tolerability, adverse events; conditions: DMF 240 mg or Compound 1 DR 420 mg
From the text: as §3
Each dosing period was separated by a wash-out period of 7 days. […]

In the case of `COC(=O)/C=C/C(=O)OCCN1C(=O)CCC1=O` [Compound 1, 2-(2,5-dioxopyrrolidin-1-yl)ethyl methyl fumarate], the “conversion to metabolite MMF in plasma” value [1] is reported as “rapidly converted”, the “Subjects with Abdominal discomfort” value ([2]; 49 mg, N = 6) is reported as 0 n (%) and the “Subjects with Abdominal pain” value ([2]; 49 mg, N = 6) is reported as 0 n (%). The “Subjects with Diarrhoea” value ([2]; 49 mg, N = 6) was 0 n (%), the “Subjects with Flatulence” value ([2]; 49 mg, N = 6) was 0 n (%) and the “Subjects with Flushing” value ([2]; 49 mg, N = 6) was 1 (16.7) n (%). For the same molecule, the “Subjects with Frequent bowel movements” value ([2]; 49 mg, N = 6) was 1 (16.7) n (%), the “Subjects with Gastrointestinal disorders (SOC)” value ([2]; 49 mg, N = 6) was 1 (16.7) n (%) and the “Subjects with Nausea” value ([2]; 49 mg, N = 6) was 0 n (%). For the same molecule, the “Subjects with Vascular disorders (SOC)” value ([2]; 49 mg, N = 6) was 1 (16.7) n (%), the “Subjects with Abdominal discomfort” value ([2]; 105 mg, N = 6) was 0 n (%) and the “Subjects with Abdominal pain” value ([2]; 105 mg, N = 6) was 0 n (%). For the same molecule, the “Subjects with Diarrhoea” value ([2]; 105 mg, N = 6) was 0 n (%), the “Subjects with Flatulence” value ([2]; 105 mg, N = 6) was 0 n (%) and the “Subjects with Flushing” value ([2]; 105 mg, N = 6) was 0 n (%). For the same molecule, the “Subjects with Frequent bowel movements” value ([2]; 105 mg, N = 6) was 0 n (%), the “Subjects with Gastrointestinal disorders (SOC)” value ([2]; 105 mg, N = 6) was 0 n (%) and the “Subjects with Nausea” value ([2]; 105 mg, N = 6) was 0 n (%). For the same molecule, the “Subjects with Vascular disorders (SOC)” value ([2]; 105 mg, N = 6) was 0 n (%), the “Subjects with Abdominal discomfort” value ([2]; 210 mg, N = 6) was 1 (16.7) n (%) and the “Subjects with Abdominal pain” value ([2]; 210 mg, N = 6) was 0 n (%). The “Subjects with Diarrhoea” value ([2]; 210 mg, N = 6) was 0 n (%), the “Subjects with Flatulence” value ([2]; 210 mg, N = 6) was 0 n (%) and the “Subjects with Flushing” value ([2]; 210 mg, N = 6) was 2 (33.3) n (%). For the same molecule, the “Subjects with Frequent bowel movements” value ([2]; 210 mg, N = 6) was 0 n (%), the “Subjects with Gastrointestinal disorders (SOC)” value ([2]; 210 mg, N = 6) was 1 (16.7) n (%) and the “Subjects with Nausea” value ([2]; 210 mg, N = 6) was 0 n (%). For the same molecule, the “Subjects with Vascular disorders (SOC)” value ([2]; 210 mg, N = 6) was 2 (33.3) n (%), the “Subjects with Abdominal discomfort” value ([2]; 420 mg, N = 6) was 0 n (%) and the “Subjects with Abdominal pain” value ([2]; 420 mg, N = 6) was 0 n (%). The “Subjects with Diarrhoea” value ([2]; 420 mg, N = 6) was 0 n (%), the “Subjects with Flatulence” value ([2]; 420 mg, N = 6) was 0 n (%) and the “Subjects with Flushing” value ([2]; 420 mg, N = 6) was 4 (66.7) n (%). The “Subjects with Frequent bowel movements” value ([2]; 420 mg, N = 6) was 0 n (%), the “Subjects with Gastrointestinal disorders (SOC)” value ([2]; 420 mg, N = 6) was 0 n (%) and the “Subjects with Nausea” value ([2]; 420 mg, N = 6) was 0 n (%). For the same molecule, the “Subjects with Vascular disorders (SOC)” value ([2]; 420 mg, N = 6) was 4 (66.7) n (%), the “Subjects with Abdominal discomfort” value ([2]; 630 mg, N = 6) was 0 n (%) and the “Subjects with Abdominal pain” value ([2]; 630 mg, N = 6) was 0 n (%). The “Subjects with Diarrhoea” value ([2]; 630 mg, N = 6) was 1 n (%), the “Subjects with Flatulence” value ([2]; 630 mg, N = 6) was 0 n (%) and the “Subjects with Flushing” value ([2]; 630 mg, N = 6) was 6 n (%). For the same molecule, the “Subjects with Frequent bowel movements” value ([2]; 630 mg, N = 6) was 0 n (%), the “Subjects with Gastrointestinal disorders (SOC)” value ([2]; 630 mg, N = 6) was 1 n (%) and the “Subjects with Nausea” value ([2]; 630 mg, N = 6) was 0 n (%). For the same molecule, the “Subjects with Vascular disorders (SOC)” value ([2]; 630 mg, N = 6) was 6 n (%), the “Subjects with Abdominal discomfort” value ([2]; 840 mg, N = 6) was 0 n (%) and the “Subjects with Abdominal pain” value ([2]; 840 mg, N = 6) was 0 n (%). For the same molecule, the “Subjects with Diarrhoea” value ([2]; 840 mg, N = 6) was 1 (16.7) n (%), the “Subjects with Flatulence” value ([2]; 840 mg, N = 6) was 2 (33.3) n (%) and the “Subjects with Flushing” value ([2]; 840 mg, N = 6) was 5 (83.3) n (%). For the same molecule, the “Subjects with Frequent bowel movements” value ([2]; 840 mg, N = 6) was 0 n (%), the “Subjects with Gastrointestinal disorders (SOC)” value ([2]; 840 mg, N = 6) was 2 (33.3) n (%) and the “Subjects with Nausea” value ([2]; 840 mg, N = 6) was 0 n (%). For the same molecule, the “Subjects with Vascular disorders (SOC)” value ([2]; 840 mg, N = 6) was 5 (83.3) n (%), the “Subjects with Abdominal discomfort” value ([2]; 980 mg, N = 6) was 1 n (%) and the “Subjects with Abdominal pain” value ([2]; 980 mg, N = 6) was 1 n (%). The “Subjects with Diarrhoea” value ([2]; 980 mg, N = 6) was 2 n (%), the “Subjects with Flatulence” value ([2]; 980 mg, N = 6) was 1 n (%) and the “Subjects with Flushing” value ([2]; 980 mg, N = 6) was 6 n (%). For the same molecule, the “Subjects with Frequent bowel movements” value ([2]; 980 mg, N = 6) was 0 n (%), the “Subjects with Gastrointestinal disorders (SOC)” value ([2]; 980 mg, N = 6) was 4 n (%) and the “Subjects with Nausea” value ([2]; 980 mg, N = 6) was 2 n (%). For the same molecule, the “Subjects with Vascular disorders (SOC)” value ([2]; 980 mg, N = 6) was 6 n (%), the “tolerability during the trial” value ([2]; 49 to 980 mg single doses) was “well tolerated” and the Subjects with Flushing ([2]; dose levels ≥420 mg) was > 50%. For the same molecule, the “PK variability (% CV) compared to DMF treatment” value [3] was “less PK variability”, the “PK variability (% CV) compared to DMF treatment” value ([3]; listed as 2-(2,5-dioxopyrrolidin-1-yl)ethyl methyl fumarate) was “less variability” and the “Subjects with Flushing” value ([4]; N = 12) was 8 (66.7%) n (%). The “Subjects with Gastrointestinal disorders (SOC)” value ([4]; N = 12) was 1 (8.3%) n (%).

With `COC(=O)/C=C/C(=O)OC` [DMF, Dimethyl fumarate] the “mean onset of flushing” value [4] was 1.2 h, the “Subjects with Constipation” value ([4]; N = 12) was 0 n (%) and the “Subjects with Diarrhoea” value ([4]; N = 12) was 1 (8.3%) n (%) and 1 n (%). The “Subjects with Eructation” value ([4]; N = 12) was 1 n (%), the “Subjects with Flatulence” value ([4]; N = 12) was 1 n (%) and the “Subjects with Flushing” value ([4]; N = 12) was 8 (66.7%) n (%) and 8 n (%). For the same molecule, the “Subjects with Gastrointestinal disorders (SOC)” value ([4]; N = 12) was 5 (41.7%) n (%) and 5 n (%), the “Subjects with Nausea” value ([4]; N = 12) was 3 (25%) n (%) and 3 n (%) and the “Subjects with Retching” value ([4]; N = 12) was 1 (8.3%) n (%) and 1 n (%). The “Subjects with Vascular disorders (SOC)” value ([4]; N = 12) was 8 n (%).
